Test results as given in patent US9089540B2, “Method for determination of sensitivity to anti-cancer agent” (KEIO UNIVERSITY, priority 2008, dated 2015).
pIC50: −log10 of the molar value.

Assays:
[1] = Clinical blood exposure to SN-38 after irinotecan administration, calculated from interview form parameters; format: in vivo, human
Protocol: Based on the pharmacokinetic parameters of SN-38 (Campto™, interview form), the area under the curve of SN-38 blood concentration (AUCSN-38) obtained after the first irinotecan administration of the colon cancer therapy regimen (180 mg/m^2/day) was calculated to be 1,449 nmol·h/L. The concentration of SN38 required to obtain the same exposure amount through 72-hour exposure employed in this Example was calculated to be 20 nM. Therefore, a cut off value was set to 20 nM for the IC50 value of each cancer cell line with respect to SN-38 and the cancer cell lines were classified into two groups of a high sensitivity group and a low sensitivity group. As a result, there was a significant increase in the peak intensity of the peak detected at m/z of 11,000 to 11,100 in the low sensitivity group (FIG. 6).

[2] = test system: 5 kinds of human colorectal cancer cell lines (COLO320, HCT-15, HT-29, LS174T, HCT116); test: Evaluation of SN-38 sensitivity, MTS assay (cell survival rate); format: cell-based; details: 72 hours exposure, range over 5 cell lines, read-out: IC50 value of each cell line (SN-38 sensitivity)
Protocol: After exposure of each cell line to 0 to 1,000 μmol/Loxaliplatin for 48 hours, a cell survival rate was evaluated with MTS assay (CellTiter96™ AQueous One Solution Cell Proliferation Assay, Promega). Then, IC50 value (a concentration at which the number of cells is suppressed to 50% with respect to that in an oxaliplatin-untreated well) was calculated and used as an oxaliplatin sensitivity in each cell line. The evaluation of the sensitivity was performed four times with cells having different passage numbers and the average value and the standard deviation value thereof were calculated.
As cells, 5 kinds of human colorectal cancer cell lines (COLO320, HCT-15, HT-29, LS174T, HCT116 (HCT116 was obtained from ECACC)), and as a drug, an irinotecan active metabolite (SN-38, obtained from Yakult Honsha, Co., Ltd.) were used. The cell survival rate after exposure to 0 to 1,000 nmol/L SN-38 for 72 hours was evaluated by MTS assay in the same manner as in Example 1 and the IC50 value was calculated. […] For the analysis, ProteinChip™ Reader (Model PCS4000 Personal Edition, Bio-Rad) was used, and the analysis was performed under the following conditions: mass range, 0 to 70,000 daltons; focus mass, 11,000 daltons; energy, 3,000 nJ; and 265 shots in total per sample. […]

[3] = human, in vivo, 100 mg/m2
[4] = roughly corresponding to the cut off value; cited from earlier work

## CCc1c2c(nc3ccc(O)cc13)-c1cc3c(c(=O)n1C2)COC(=O)[C@]3(O)CC [SN-38]
[1]; AUC equivalent over 72-hour exposure
  concentration of SN38 required to obtain the same exposure amount through 72-hour exposure: 0.02 µM
[1]; after first irinotecan administration of colon cancer regimen, 180 mg/m^2/day
  area under the curve of SN-38 blood concentration (AUCSN-38): 1,449 nmol·h/L
[2]
  pIC50: 7.47 to 8.47

## N.N.[Cl][Pt][Cl] [cisplatin, cis-Diammineplatinum(II) dichrolide]
[3]
  Cmax: 9.5 to 11 µM

## O=C1[O][Pt]2([NH][C@@H]3CCCC[C@H]3[NH]2)[O]C1=O [oxaliplatin, (SP-4-2)-[(1R,2R)-cyclohexane-1,2-diamine-κN,κN′][ethanedioato (2-)-κO^1,κO^2]platinum]
[4]
  peak blood concentration at the time of clinical use: ~5.0 µM
